According to PubChem BioAssay AID274 (DTP/NCI, 2004):
Where “and” joins values, the source holds several entries; their conditions need not be identical. Equal entries are not always repeated. Inconclusive results and toxic doses are left out.

System: BDF1 mice, Lewis lung carcinoma iv, survival T/C
Test: NCI In Vivo Anticancer Drug Screen. Data for tumor model Lewis Lung Carcinoma (intravenous) in B6D2F1 (BDF1) mice
Details: endpoint: median survival time, higher = longer survival
Method: The antitumor activity of compounds was measured in mice bearing transplantable tumors. Survival or tumor size were measured and the results are expressed as the measurement made in the treated group (T) divided by the measurement made in the vehicle treated control group (C). The tumor model used in this assay is Lewis Lung Carcinoma (intravenous) in B6D2F1 (BDF1) mice

[1] = dose: 12.5 mg/kg/injection, schedule: Q01DX009 (ip), vehicle: saline with Tween-80
[2] = dose: 25.0 mg/kg/injection, schedule: Q01DX009 (ip), vehicle: saline with Tween-80
[3] = dose: 50.0 mg/kg/injection, schedule: Q01DX009 (ip), vehicle: saline with Tween-80
[4] = dose: 100.0 mg/kg/injection, schedule: Q01DX009 (ip), vehicle: saline with Tween-80
[5] = dose: 200.0 mg/kg/injection, schedule: Q01DX009 (ip), vehicle: saline with Tween-80
[6] = dose: 400.0 mg/kg/injection, schedule: Q01DX009 (ip), vehicle: saline with Tween-80
[7] = dose: 0.6 mg/kg/injection, schedule: Q04DX003 (ip), vehicle: saline
[8] = dose: 360.0 micrograms/kg/injection, schedule: Q01DX009 (ip), vehicle: saline
[9] = dose: 6.25 mg/kg/injection, schedule: Q01DX009 (ip), vehicle: suspension in saline
[10] = dose: 12.5 mg/kg/injection, schedule: Q01DX009 (ip), vehicle: suspension in saline
[11] = dose: 25.0 mg/kg/injection, schedule: Q01DX009 (ip), vehicle: suspension in saline

C[C@]12CC[C@@H]3c4ccc(OC(=O)Cc5ccc(N(CCCl)CCCl)cc5)cc4CC[C@H]3[C@@H]1CC[C@@H]2OC(=O)Cc1ccc(N(CCCl)CCCl)cc1
T/C [1]: 97 % of control
T/C [2]: 104 % of control
T/C [3]: 99 % of control
T/C [4]: 91 % of control
T/C [5]: 98 % of control
T/C [6]: 100 % of control

N#CCCSC(=S)C1CCCC1=N (stereo unspecified)
T/C [1]: 105 % of control
T/C [2]: 101 % of control
T/C [3]: 106 % of control
T/C [4]: 93 % of control
T/C [5]: 98 % of control
T/C [6]: 106 % of control

CC1=C(/C=C/C(C)=C/C=C/C(C)=C/C=O)C(C)(C)CCC1
T/C (dose: 4.0 mg/kg/injection, schedule: Q01DX005 (ip), vehicle: saline with Tween-80): 96 % of control
T/C (dose: 8.0 mg/kg/injection, schedule: Q01DX005 (ip), vehicle: saline with Tween-80): 96 % of control and 109 % of control
T/C (dose: 16.0 mg/kg/injection, schedule: Q01DX005 (ip), vehicle: saline with Tween-80): 95 % of control and 116 % of control
T/C (dose: 32.0 mg/kg/injection, schedule: Q01DX005 (ip), vehicle: saline with Tween-80): 108 % of control
T/C (dose: 64.0 mg/kg/injection, schedule: Q01DX005 (ip), vehicle: saline with Tween-80): 95 % of control and 96 % of control

CCC1(O)CC2CN(CCc3c([nH]c4ccccc34)C(C(=O)OC)(c3cc4c(cc3OC)N(C)C3C(O)(C(=O)NCCO)C(O)C5(CC)C=CCN6CCC43C65)C2)C1 (stereo unspecified)
T/C [7]: 96 % of control
T/C (dose: 1.0 mg/kg/injection, schedule: Q04DX003 (ip), vehicle: saline): 101 % of control
T/C (dose: 1.67 mg/kg/injection, schedule: Q04DX003 (ip), vehicle: saline): 101 % of control
T/C (dose: 216.0 micrograms/kg/injection, schedule: Q01DX009 (ip), vehicle: saline): 111 % of control
T/C [8]: 111 % of control

O=C(O)C1CC1.[Ag]
T/C (dose: 0.78 mg/kg/injection, schedule: Q01DX009 (ip), vehicle: distilled water + Tween-80): 96 % of control
T/C (dose: 1.56 mg/kg/injection, schedule: Q01DX009 (ip), vehicle: distilled water + Tween-80): 110 % of control
T/C (dose: 3.12 mg/kg/injection, schedule: Q01DX009 (ip), vehicle: distilled water + Tween-80): 96 % of control
T/C (dose: 6.25 mg/kg/injection, schedule: Q01DX009 (ip), vehicle: distilled water + Tween-80): 100 % of control
T/C (dose: 12.5 mg/kg/injection, schedule: Q01DX009 (ip), vehicle: distilled water + Tween-80): 107 % of control

O[C@H](CN1CC1)[C@@H](O)CN1CC1
T/C (dose: 0.13 mg/kg/injection, schedule: Q01DX009 (ip), vehicle: saline): 111 % of control
T/C (dose: 0.25 mg/kg/injection, schedule: Q01DX009 (ip), vehicle: saline): 121 % of control

O=C(CCN1CC1)Nc1cccc(NC(=O)CCN2CC2)c1
T/C (dose: 2.5 mg/kg/injection, schedule: Q01DX009 (ip), vehicle: saline with Tween-80): 110 % of control
T/C (dose: 5.0 mg/kg/injection, schedule: Q01DX009 (ip), vehicle: saline with Tween-80): 106 % of control
T/C (dose: 10.0 mg/kg/injection, schedule: Q01DX009 (ip), vehicle: saline with Tween-80): 123 % of control

CN(C)c1nc(N(C)C)nc(N(C)C)n1
T/C [3]: 99 % of control
T/C (dose: 59.0 mg/kg/injection, schedule: Q04DX003 (ip), vehicle: saline): 102 % of control
T/C (dose: 88.0 mg/kg/injection, schedule: Q04DX003 (ip), vehicle: saline): 97 % of control
T/C [4]: 154 % of control
T/C (dose: 133.0 mg/kg/injection, schedule: Q04DX003 (ip), vehicle: Klucel (hydroxypropylcellulose) (HPC)): 90 % of control
T/C (dose: 133.0 mg/kg/injection, schedule: Q04DX003 (ip), vehicle: saline): 101 % of control and 109 % of control
T/C [5]: 92 % of control
T/C (dose: 200.0 mg/kg/injection, schedule: Q04DX003 (ip), vehicle: Klucel (hydroxypropylcellulose) (HPC)): 114 % of control
T/C (dose: 200.0 mg/kg/injection, schedule: Q04DX003 (ip), vehicle: saline): 96 % of control and 105 % of control
T/C (dose: 300.0 mg/kg/injection, schedule: Q04DX003 (ip), vehicle: saline): 95 % of control and 105 % of control
T/C (dose: 450.0 mg/kg/injection, schedule: Q04DX003 (ip), vehicle: saline): 104 % of control
T/C (dose: 675.0 mg/kg/injection, schedule: Q04DX003 (ip), vehicle: saline): 105 % of control

O=C1NC(=O)/C(=C/C=C/c2ccccc2)S1
T/C [1]: 95 % of control
T/C [2]: 104 % of control
T/C [3]: 101 % of control
T/C [4]: 95 % of control
T/C [5]: 105 % of control
T/C [6]: 104 % of control

CNC(=O)c1cccc2c(Nc3ccc(NS(C)(=O)=O)cc3OC)c3cccc(C)c3nc12
T/C (dose: 0.39 mg/kg/injection, schedule: Q01DX009 (ip), vehicle: water): 100 % of control
T/C (dose: 1.56 mg/kg/injection, schedule: Q01DX009 (ip), vehicle: water): 112 % of control
T/C (dose: 3.12 mg/kg/injection, schedule: Q01DX009 (ip), vehicle: water): 89 % of control

CC[N](CC)[Ge]([CH2]C)[CH2]C.CC[N](CC)[Ge]([CH2]C)[CH2]C
T/C (dose: 3.12 mg/kg/injection, schedule: Q01DX009 (ip), vehicle: suspension in saline): 113 % of control
T/C [9]: 95 % of control
T/C [10]: 96 % of control
T/C [11]: 106 % of control
T/C (dose: 50.0 mg/kg/injection, schedule: Q01DX009 (ip), vehicle: suspension in saline): 100 % of control

CC[PH+](CC)CC[S-].CC[PH+](CC)CC[S-].[Au+].[Au+]
T/C (dose: 2.5 mg/kg/injection, schedule: Q01DX009 (ip), vehicle: Klucel (hydroxypropylcellulose) (HPC)): 115 % of control
T/C (dose: 5.0 mg/kg/injection, schedule: Q01DX009 (ip), vehicle: Klucel (hydroxypropylcellulose) (HPC)): 102 % of control
T/C (dose: 10.0 mg/kg/injection, schedule: Q01DX009 (ip), vehicle: Klucel (hydroxypropylcellulose) (HPC)): 109 % of control
T/C (dose: 20.0 mg/kg/injection, schedule: Q01DX009 (ip), vehicle: Klucel (hydroxypropylcellulose) (HPC)): 114 % of control
T/C (dose: 40.0 mg/kg/injection, schedule: Q01DX009 (ip), vehicle: Klucel (hydroxypropylcellulose) (HPC)): 102 % of control
T/C (dose: 80.0 mg/kg/injection, schedule: Q01DX009 (ip), vehicle: Klucel (hydroxypropylcellulose) (HPC)): 109 % of control

CC(=O)CC(C)=O.CC(=O)CC(C)=O.O=N[O-].O=N[O-].[Co]
T/C [1]: 103 % of control
T/C [2]: 96 % of control
T/C [3]: 107 % of control

Nc1nnc[se]1
T/C (dose: 3.12 mg/kg/injection, schedule: Q01DX009 (ip), vehicle: saline with Tween-80): 103 % of control
T/C (dose: 6.25 mg/kg/injection, schedule: Q01DX009 (ip), vehicle: saline with Tween-80): 111 % of control
T/C [2]: 118 % of control

CN(N=O)C(=O)N[C@@H](C=O)[C@@H](O)[C@H](O)[C@H](O)CO
T/C (dose: 16.0 mg/kg/injection, schedule: Q01DX009 (ip), vehicle: other): 109 % of control
T/C (dose: 25.0 mg/kg/injection, schedule: Q01DX009 (ip), vehicle: citric acid): 110 % of control
T/C (dose: 32.0 mg/kg/injection, schedule: Q01DX009 (ip), vehicle: other): 98 % of control
T/C (dose: 64.0 mg/kg/injection, schedule: Q01DX009 (ip), vehicle: other): 112 % of control
T/C (dose: 100.0 mg/kg/injection, schedule: Q01DX009 (ip), vehicle: citric acid): 124 % of control
T/C (dose: 128.0 mg/kg/injection, schedule: Q01DX009 (ip), vehicle: other): 109 % of control

Nc1nc(N)c(N=O)c(Nc2ccc(I)cc2)n1
T/C [3]: 97 % of control
T/C [4]: 95 % of control
T/C [5]: 95 % of control

CNC=O
T/C (dose: 100.0 mg/kg/injection, schedule: Q01DX009 (ip), vehicle: saline sonified): 106 % of control
T/C (dose: 200.0 mg/kg/injection, schedule: Q01DX009 (ip), vehicle: saline sonified): 114 % of control
T/C (dose: 400.0 mg/kg/injection, schedule: Q01DX009 (ip), vehicle: saline sonified): 115 % of control

CCc1ncnc2cc(OCC3CO3)c(OC)cc12 (stereo unspecified)
T/C [9]: 98 % of control
T/C [10]: 104 % of control
T/C [11]: 93 % of control

CC[C@]1(O)C[C@H]2CN(CCc3c([nH]c4ccccc34)[C@@](C(=O)OC)(c3cc4c(cc3OC)N(C)[C@H]3[C@@](O)(C(=O)OC)[C@H](OC(C)=O)[C@]5(CC)C=CCN6CC[C@]43[C@@H]65)C2)C1
T/C [7]: 106 % of control
T/C (dose: 125.0 micrograms/kg/injection, schedule: Q04DX003 (ip), vehicle: saline): 93 % of control (2×) and 102 % of control
T/C (dose: 250.0 micrograms/kg/injection, schedule: Q04DX003 (ip), vehicle: saline): 92 % of control (2×) and 95 % of control
T/C [8]: 111 % of control
T/C (dose: 500.0 micrograms/kg/injection, schedule: Q04DX003 (ip), vehicle: saline): 92 % of control (2×) and 95 % of control
T/C (dose: 600.0 micrograms/kg/injection, schedule: Q01DX009 (ip), vehicle: saline): 92 % of control
